The values below come from patent US4225619A, “Substituted fluoracylresorcinols” (Boehringer Ingelheim GmBH, priority 1976, dated 1980).

In general, MIC refers to the lowest concentration that inhibits growth of the organism.

For test [1], the target named is glucose-6-phosphate-dehydrogenase. Briefly: Inhibition of glucose-6-phosphate-dehydrogenase (G6PDH). The test is classed as biochemical. The protocol: Measurement of the inhibition of the glucose-6-phosphatedehydrogenase
The equilibrium was observed:
Glucose-6-phosphate+NADP^+ G6-DH gluconic
acid-6-phosphate+NADPH+H^+
(NADP=nicotinamide-adenine-dinycleotide-phosphate, G6P-DH=gluconic acid-6-phosphate-dehydrogenase)
The formation velocity of NADPH is a measure for the enzyme activity; it may be observed by means of the extinction increase at 340, 334 or 366 nm per unit of time.
0.025 ml of glucose-6-phosphate-dehydrogenase (Boehringer Mannheim) were filled up to 10 ml of distilled water (solution I). 100 mgm of nicotinamide-adenine-dinucleotide-phosphate were dissolved in 13 ml of distilled water (solution II). 47.2 mgm of glucose-6-phosphate were dissolved in further 10 ml of distilled water (solution 3). Simultaneously a buffer solution (solution IV) was prepared as follows: 0.28 gm of triethanolamine-hydrochloride and 1.461 gm of ethylene diaminotetraacetic acid-disodium salt were dissolved in 1 liter of distilled water and adjusted to a pH of 7.6 with sodium hydroxide solution. The substance under test was dissolved in dimethyl formamide or ethanol (solution V). Tested concentrations: 50; 25; 12.5; 6.25; 3.125; 1.56 and 0.78 μg/ml.
0.1 ml of solution I, 0.1 ml of solution II, 2.67 ml of solution IV and 0.03 ml of solution V were mixed and kept at 25° C. for 5 minutes. Then 0.1 ml of solution III was added, mixed and the alteration of extinction was determined spectrophotometrically at 366 nm for 3 minutes.
0.1 ml of solution I, 0.1 ml of solution II, 2.67 ml of solution IV and 0.03 ml of solution V were mixed and kept at 37° C. for 60 minutes. Then 0.1 ml of solution III was added, mixed and the alteration of extinction was measured spectrophotometrically at 366 nm for 3 minutes.
The inhibitory values were calculated from the average values of three measurements (alteration of extinction per minute) compared with controls, which received the pure solvent as the inhibitory solution. Then the ED50 was calculated according to Reed and Muench from the inhibitory values for the various concentrations.

Test [2] deals with Staphylococcus aureus SG 511. Put plainly: Agar diffusion test (hole-test). The test is classed as cell-based. The conditions noted are these: SG511, 18-20 hours at 37° C., read-out: MIC, A.D.T., Staphylococcus aureus SG 511. The protocol: (§1) The inhibitory effect on bacteria and fungi was examined by the serial dilution test and the agar diffusion test (hole-test). As bacteria were used: Staphylococcus aureus SG 511, Streptococcus Aronson, Streptococcus pyogenes At CC 86 68; as fungi: Candida albicans AT CC 10231, Trichophyton mentagrophytes AT CC 9129 and Aspergillus niger.
1. Meat extract agar: for St. aureus SG 511
(§2) The age of the primary cultures is 24 hours for bacteria and 14 days for fungi. The standardization of the suspension of microorganisms is effected using a photometer according to Eppendorf (test tube .phi.14 mm, filter 546 nm) and a suspension for comparison consisting of barium sulfate, this suspension being created by addition of 3.0 ml of 1% barium chloride solution to 97 ml of 1% sulfuric acid. After the standardization St. aureus SG 511 was diluted 1:1000 and Sc. pyogenes and Aronson 1:100 by means of sodium chloride solution. The fungi were used in an undiluted state.
(§3) 40 mgm of the substance were put into a 10 ml measuring flask and filled up to the mark with the solvent (corresponds to a dilution of 1:250=4000 μg/ml).
(§4) The dilutions to the concentrations under test were effected with distilled water or the respective solvent.
(§5) 19 ml of the nutrient medium were filled into sterile Petri dishes of a diameter of 8 cm and dried. Subsequently the agar plates were charged with 4 ml of seed agar. 100 ml of seed agar contain 1.25 ml of the suspension of microorganisms, an agar plate thus containing 0.05 ml of the suspension of microorganisms. After solidification of the agar, 5 holes of a diameter of 5 mm were punched into the plates and filled with 0.05 ml of the correspondingly concentrated substance solution.
(§6) Control tests merely using the solvent are to be carried out simultaneously.
(§7) Bacteria were incubated at 37° C. for 18-20 hours and fungi at 27° C. for 7 days.
(§8) The diameter of the area of inhibition in mm was measured after having deducted the diameter of the hole.
(In agar diffusion tests the substance spreads into inoculated agar from a disc or well.)

The test system of a further test is Corynebacterium acnes. Briefly: Serial dilution test for Corynebacterium acnes. It is filed as cell-based. The conditions noted are these: Cutibacterium acnes, 37° C. for 48 hours, read-out: MIC, S.D.T., Corynebacterium acnes. The method, then:
Serial dilution test for Corynebacterium acnes and Pityrosporum ovale Nutrient medium
For Corynebacterium acnes: thioglycolate-broth for Pityrosporum ovale: Littmann's broth, 5 ml per tube.
Suspension of microorganisms in 0.9% sodium chloride solution, standardized using a photometer according to Eppendorf by means of a suspension for comparison consisting of barium sulfate, for Corynebacterium acnes in a dilution of 1:100, for Pityrosporum ovale in an undiluted state. 0.1 ml of the suspensions was used per test tube. Dimethyl sulfoxide served as a solvent for the substances.
The suspension with Corynebacteria acnes was incubated at 37° C. for 48 hours, the suspension of Pityrosporum ovale at 27° C. for 7 days. The reading was effected by macroscopic evaluation of the growth of microorganisms and registration of the minimal inhibitory concentration.

In a further test the test system is HeLa-cell culture. Briefly: Inhibition of HeLa cell cultures. The test is classed as cell-based. The following applies: Homo sapiens, 72 h, 37° C. for 3 days, 5% carbon dioxide; for IC50: read-out: ED50, HeLa cell culture; for minimal effective concentration: read-out: Minimal inhibitory concentration, HeLa cell culture. The protocol: Measurement of the inhibition of cell cultures
HeLa-cell culture was treated with trypsin and adjusted to a cell number of 150,000 cells/ml of fresh medium. The substance was always dissolved in the same quantity of dimethyl sulfoxide and then further diluted with growth medium. 0.1 ml of the substance-dilutions were added to each well of microtiter plates and then 0.2 ml of cell suspension were added (4 wells per dilution). Several growth controls containing 0.1 ml of growth medium instead of 0.1 ml of substance dilution were put up. After careful mixing, the cultures were incubated at 37° C. for 3 days in a 5% carbon dioxide atmosphere. The reading was effected in comparison with these controls. The results were given as the percentage of the deficiency and degeneration compared to the growth control. […] The statements are referred to μg of substance per ml of total medium.

In test [3] the test system is Staphylococcus aureus SG 511. Put plainly: Serial dilution test. The following applies: Staphylococcus aureus, SG511, 18-20 hours at 37° C., read-out: MIC, S.D.T., Staphylococcus aureus SG 511. The test is classed as cell-based. The protocol: as §1
1. Meat extract broth: for St. aureus SG 511
(§9) The age of the primary cultures is 24 hours for bacteria and 14 days for fungi. The standardization of the suspension of microorganisms is effected using a photometer according to Eppendorf (test tube .phi.14 mm, filter 546 nm) and a suspension for comparison consisting of barium sulfate, this suspension being created by adition of 3.0 ml of 1% barium chloride solution to 97 ml of 1% sulfuric acid. After the standardization the bacteria were further diluted to a concentration of 1:1000 by means of sodium chloride solution, the fungi were used in an undiluted state.
(§10) 40 mgm of the substance were put into a 10 ml measuring flask and filled up to the mark with the solvent (corresponds to a dilution of 1:250=4000 μg/ml). The further dilution series was standardized with distilled water or the respective solvent and the following substance concentrations were prepared: 1000; 250; 62.5 μg/ml.
(§11) The tubes were filled with 4.9 ml of the corresponding liquid nutrient medium. Then 0.1 ml of the substance dilution prepared above was added to each tube, so that the mentioned final concentrations were present. Finally each tube was inoculated with 0.1 ml of the standardized suspension of microorganisms. Control tests merely using the solvent are to be carried out simultaneously.
as §7
(§12) The measurement is carried out macroscopically defining the minimal inhibitory concentration (the lowest still microbiostatically effective concentration).

Test [4] relates to Streptococcus pyogenes At CC 86 68. Put plainly: Serial dilution test. The test is classed as cell-based. The following applies: Streptococcus pyogenes, ATCC8668, 18-20 hours at 37° C., read-out: MIC, S.D.T., Streptococcus pyogenes. The method, then:
as §1
(§13) 2. Glucose broth: for Sc. Aronson and St. pyogenes Recipe see meat extract broth. After sterilization 1 weight percent of glucose is added as a sterile 50% solution.
as §9, §10, §11, §7, §12

The subject of test [5] is Streptococcus Aronson. Put plainly: Serial dilution test. It is filed as cell-based. The conditions noted are these: Streptococcus, 18-20 hours at 37° C., read-out: MIC, S.D.T., Streptococcus Aronson. The method, then: as §1, §13, §9, §10, §11, §7, §12
Test [6] concerns Streptococcus pyogenes At CC 86 68. Put plainly: Agar diffusion test (hole-test). It is filed as cell-based. The conditions noted are these: ATCC8668, 18-20 hours at 37° C., read-out: MIC, A.D.T., Streptococcus pyogenes. The method, then: as §1
(§14) 2. Glucose agar: for Sc. Aronson and St. pyogenes Recipe see meat extract agar. After sterilization 1 weight percent of glucose is added as a sterile 50% solution.
as §2, §3, §4, §5, §6, §7, §8

Test [7] relates to Streptococcus Aronson. Briefly: Agar diffusion test (hole-test). The test is classed as cell-based. The conditions noted are these: 18-20 hours at 37° C., read-out: MIC, A.D.T., Streptococcus Aronson. The protocol: as §1, §14, §2, §3, §4, §5, §6, §7, §8

In brackets after ≈: the same amount, converted by molar mass.

For `CC(C)c1c(O)c(Cc2cc(C(=O)C(F)(F)F)c(O)c(C(C)C)c2O)cc(C(=O)C(F)(F)F)c1O` [Z, Methylene-bis-(2,4-dihydroxy-3-isopropyl-5-trifluoro-acetyl)-benzene], the “G6PDH-inhibition Ed50, Immediate Inhibition” value in test [1] (25° C. for 5 minutes preincubation) worked out at 0.58 µg/mL. Also, in test [1] (37° C. for 60 minutes preincubation), the “G6PDH-inhibition Ed50, Inhibition of Incubation” value amounted to 0.13 µg/mL.

Regarding `O=C(c1ccc(O)c(C2CCCC2)c1O)C(F)(F)F` [N, 2,4-Dihydroxy-3-cyclopentyl-trifluoroacetophenone], the MIC in test [2] was ≤ 15.6 µg/mL; in the test with Corynebacterium acnes, 0.31 µg/mL (≈ 1.13 µM); in test [3] it was 1.25 µg/mL (≈ 4.56 µM); in test [4] it was 0.31 µg/mL (≈ 1.13 µM); in the test on Streptococcus Aronson [5] it was 1.25 µg/mL (≈ 4.56 µM); in test [6], 62.5 µg/mL (≈ 228 µM). Moreover, the MIC in the test on Streptococcus Aronson [7] is ≤ 15.6 µg/mL. In the test on HeLa-cell culture, the IC50 came out at 5.32 µg/mL (≈ 19.4 µM). Also, in the test with HeLa-cell culture, the minimal effective concentration turned out to be 3.13 µg/mL.

As for `Cc1c(O)c(Cc2cc(C(=O)C(F)(F)F)c(O)c(C)c2O)cc(C(=O)C(F)(F)F)c1O` [S, Methylene-bis-(2,4-dihydroxy-3-methyl-5-trifluoro-acetyl)-benzene], the MIC in test [2] is ≤ 15.6 µg/mL; with Corynebacterium acnes, 0.31 µg/mL (≈ 0.685 µM); in test [3], 1.25 µg/mL (≈ 2.76 µM); in [4], 1.25 µg/mL (≈ 2.76 µM); in the test on Streptococcus Aronson [5] it was 1.25 µg/mL (≈ 2.76 µM); in test [6], ≤ 15.6 µg/mL. Also, the MIC with Streptococcus Aronson [7] was ≤ 15.6 µg/mL. Also, the IC50 with HeLa-cell culture was found to be 3.8 µg/mL (≈ 8.4 µM). Besides, the minimal effective concentration with HeLa-cell culture is ≤ 0.78 µg/mL.
